“Also recorded” adds a separate entry of the source.
Key:
[1] = test system: CHO-BDCA2/FcεRIγ stable transfectant cells; assay: CDC assay with rabbit serum complement; assay type: cell-based; conditions: 1 h at 37° C.
Experimental: CHO− BDCA2/FcεRIγ stable transfectant cells (EAG2456 T1F2 Clone 34.16.7) were seeded at 5×10^4 cells in 96 well Collagen black well plates and incubated at 37° C. for 48 hrs. […] Negative control consisted of wells containing CHO cells, rabbit serum complement, and PI, without antibodies. NK and CHO cells lysed with T-100×were used to determine maximal killing. The plates were read using Cytoflour Fluorescence plate reader (ex530/em645).

[2] = test system: BDCA2 bearing CHO cells; assay: ADCC assay with NK cells; assay type: cell-based; conditions: NK:CHO 5:1, 4 hours
Experimental: The CHO cell line (EAG2456 T1F2 Clone 34.16.7) was used as the target cell. Expression level of BDCA2 on the surface of CHO cells was determined by FACS using an APC-labeled anti-BDCA2 mAb (clone AC144, Miltenyi). NK cells were used as the effector cells and were separated from whole blood by negative selection using the RosetteSep™ Human NK Cell Enrichment Cocktail (Stem Cells Technologies). After a 20 minute incubation with the cocktail at room temperature, NK cells were isolated by discontinuous gradient centrifugation over ficoll. […] The negative control consisted of wells containing CHO and NK cells without antibodies. NK and CHO cells lysed with Tx-100 were used to determine maximal killing. ADCC was evaluated using the Vybrant Cytotoxicity Assay kit (Invitrogen), following the manufacturer's instructions. The assay detects G6PD from damaged cells based on the G6PD-dependent reduction of resazurin which emits fluorescence at 590 nm after excitation at 530 nm. The ADCC assay depicted in FIG. 22 panel A was performed using high BDCA2 expressing CHO cells (panel C) while the ADCC assay in FIG. 22 panel B used CHO cells with lower BDCA2 expression (panel D).

[3] = test system: circulating pDCs; assay: Circulating pDC frequency after dosing cynomolgus monkeys; assay type: in vivo, cynomolgus monkey
Source text: Nine of these twelve cynomolgus monkeys were divided into 3 groups (3/group), and randomized to include equal representation of BDCA2 density and percent pDC in each group. […] Flow cytometry was used to identify circulating pDCs in the whole blood as CD20-CD14-CD123+HLA-DR+, and the pDC frequency (on log-scale) at each time point was graphed in R software (FIG. 54). A linear mixed effects model was fitted to log (pDC) frequencies using random intercepts for cynomolgus monkeys and fixed effects for dose group and time period: 1 hour, 6 hours, 1-27 days, and greater than 28 days. To assess whether pDC changed among different dose groups at different time periods, a preliminary model also included the interaction terms for dose group and different time periods.
The pDC frequency (on log-scale) at each time point was graphed in R software (FIG. 56). A linear mixed effects model was fitted, using continuous time and time at 1 hour as fixed factors, and cynomolgus monkeys as random intercepts.

[4] = test system: TLR9-induced IFNα production in whole blood; assay: Pre-incubation (internalization) before TLR9 stimulation, IFNα in whole blood; assay type: cell-based, human; conditions: up to 9 hours pre-incubation, then 200 μg/mL CpG-A for 18 hours
Experimental: The following experiment was conducted to ascertain whether BIIB059-mediated receptor internalization affected IFN inhibition. […] At each time point after pre-incubation, cells were challenged with 200 μg/mL CpGA and incubated for an additional 18 hours at 37° C. Supernatants were collected for use in IFNα ELISA assays (PBL InterferonSource). The assays were performed according to the manufacturer's protocol. FIG. 19B is a representative experiment of 3 independent experiments performed. […] In addition, we have previously shown that bivalent binding was necessary for anti-BDCA2 mediated IFN inhibition.
At each time point after pre-incubation, cells were stimulated with 200 μg/mL TLR9 ligand (CpG-A) and incubated for an additional 18 hours at 37° C. Supernatants were collected for use in IFNα ELISA assays (PBL InterferonSource).

Substance	CDC activity, in words [1]	killing of BDCA2 bearing CHO cells [2] [%]	effect est., log % circulating pDC ([3]; Group: BIIB059 1 mg/kg IV v. vehicle)	effect est., log % circulating pDC ([3]; SC 0.2 mg/kg, time (continuous))	effect est., log % circulating pDC ([3]; SC 0.2 mg/kg, time: 1 hr v. others)	depletion of pDCs in the blood, in words ([3]; tested doses)	ADCC activity, in words [2]	effect of pre-incubation on IFNα inhibition [4]
24F4S: hu24F4 H4/L1 with C95S light chain; differs from BIIB059 by 1 amino acid residue	cell killing by CDC similar to Triton lysis	100	–	–	–	–	–	–
BIIB059: humanized IgG1 anti-BDCA2 antibody, mature heavy chain SEQ ID NO: 4 and mature light chain SEQ ID NO: 3	cell killing by CDC similar to Triton lysis	–	0.49	0.01	−0.78	does not mediate a sustained depletion of pDCs	identical ADCC activity	did not affect IFN inhibition; also recorded: did not alter the ability of BIIB059 to inhibit
